Results as given in US20260266837A1, “Methods for Cancer Recurrence Detection and Treatment Thereof” (Institut Curie, priority 2022, published 2026).

What was measured:
[1] = tested on: MDA-MB-468, BT20 and HCC38; assay: Number of persister cells after EZH2i pre-treatment and 5-FU; assay type: cell-based, human; details: 10 days pre-treatment, then 5-FU for 21 days
Description: Cell lines, culture conditions and drug treatments. […] All cell lines were cultured in a humidified 5% CO2 atmosphere at 37° C., and were tested as mycoplasma negative. […] Cells were treated with 5 μM of 5-FU (Sigma, Ref: […]) alone or in combination with KDM6A/Bi or EZH2i for indicated days. […] Cell proliferation, doubling time and IC50. MDA-MB-468, HCC38 and BT20 cells were stained with Trypan Blue (Invitrogen, Ref: T10282) exclusion test, and counted using a Countess automated cell counter (Invitrogen, Ref: C10228) at indicated time of treatment (FIG. 4a and Extended FIG. 8a/d/f).

H3K27me3, EZH2 = target: T1, H3K27me3, EZH2 (Homo sapiens, UniProt Q15910); assay: Western blotting of EZH2i-treated cells; assay type: cell-based; details: prior to chemotherapy treatment
T1 construct: endogenous in cells; host or cells: MDA-MB-468, HCC38 or BT20
Description: Western blotting. In Extended FIG. 8b/e/g, DMSO- and EZH2i-treated cells were lysed at 95° C. for 10 minutes in Laemmli buffer (50 mM Tris-HCl [pH 6.8], 2% SDS, 5% glycerol, 2 mM DTT, 2.5 mM EDTA, 2.5 mM EGTA, 4 mM Sodium Orthovanadate, 20 mM Sodium Fluoride, protease inhibitors, phosphatase inhibitors) and proteins concentrations were measured using a Pierce BCA protein Assay Kit (Thermo Fisher Scientific, Ref: 23225/23227). 10 μg of proteins were then separated on a 4-15% Mini-PROTEAN TGX Stain-Free Gel (Bio-Rad, Ref: 4568085) at 160V. After transfer, the membrane was blocked for 1 h at room temperature in PBS pH 7.4 containing 0.1% Tween-20 and 1% milk (Regilait). Incubation anti-H3K27me3 (Dilution: 1:2000, Cell Signaling, Ref: 9733) or EZH2 (Dilution: 1:2000, Cell Signaling, Ref: 5246) or Tubulin (Dilution: 1:1000, Thermo Fisher Scientific, Ref: 31460) primary antibodies diluted in PBS pH 7.4, 0.1% Tween-20 were performed at 4° C. overnight.

T1 sequence (Q15910 whole entry): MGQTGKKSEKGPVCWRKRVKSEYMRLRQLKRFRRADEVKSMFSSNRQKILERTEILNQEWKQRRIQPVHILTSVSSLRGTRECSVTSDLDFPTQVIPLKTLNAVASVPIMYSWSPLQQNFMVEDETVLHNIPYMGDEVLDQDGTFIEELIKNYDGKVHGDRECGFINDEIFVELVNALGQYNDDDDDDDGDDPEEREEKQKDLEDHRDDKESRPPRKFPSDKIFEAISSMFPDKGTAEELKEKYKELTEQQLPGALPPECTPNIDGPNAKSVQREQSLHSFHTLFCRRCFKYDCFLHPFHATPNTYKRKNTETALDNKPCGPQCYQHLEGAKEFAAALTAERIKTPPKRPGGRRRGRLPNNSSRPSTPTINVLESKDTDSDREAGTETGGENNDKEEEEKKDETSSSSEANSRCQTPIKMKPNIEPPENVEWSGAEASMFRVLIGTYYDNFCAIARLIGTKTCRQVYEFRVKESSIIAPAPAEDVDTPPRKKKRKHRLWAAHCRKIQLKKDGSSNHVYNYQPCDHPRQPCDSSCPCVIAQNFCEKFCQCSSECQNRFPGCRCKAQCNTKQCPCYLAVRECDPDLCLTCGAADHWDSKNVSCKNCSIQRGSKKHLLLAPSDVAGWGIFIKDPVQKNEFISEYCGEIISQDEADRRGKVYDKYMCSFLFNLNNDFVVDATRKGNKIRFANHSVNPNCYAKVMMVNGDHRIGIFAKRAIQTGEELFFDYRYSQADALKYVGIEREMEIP
T1 sequence (O75530 whole entry partner): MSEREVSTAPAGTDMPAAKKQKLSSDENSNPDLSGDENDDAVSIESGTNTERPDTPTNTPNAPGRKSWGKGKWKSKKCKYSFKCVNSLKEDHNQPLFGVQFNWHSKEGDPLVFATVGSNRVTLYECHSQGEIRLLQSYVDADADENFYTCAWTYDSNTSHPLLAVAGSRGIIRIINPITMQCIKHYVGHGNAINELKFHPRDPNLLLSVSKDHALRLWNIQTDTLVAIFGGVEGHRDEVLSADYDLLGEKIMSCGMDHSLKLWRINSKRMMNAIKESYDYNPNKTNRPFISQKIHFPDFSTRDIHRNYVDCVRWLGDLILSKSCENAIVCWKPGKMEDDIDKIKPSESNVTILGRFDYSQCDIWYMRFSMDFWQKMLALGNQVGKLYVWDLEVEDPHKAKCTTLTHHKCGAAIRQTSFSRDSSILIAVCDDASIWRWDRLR
T1 sequence (Q15022 whole entry partner): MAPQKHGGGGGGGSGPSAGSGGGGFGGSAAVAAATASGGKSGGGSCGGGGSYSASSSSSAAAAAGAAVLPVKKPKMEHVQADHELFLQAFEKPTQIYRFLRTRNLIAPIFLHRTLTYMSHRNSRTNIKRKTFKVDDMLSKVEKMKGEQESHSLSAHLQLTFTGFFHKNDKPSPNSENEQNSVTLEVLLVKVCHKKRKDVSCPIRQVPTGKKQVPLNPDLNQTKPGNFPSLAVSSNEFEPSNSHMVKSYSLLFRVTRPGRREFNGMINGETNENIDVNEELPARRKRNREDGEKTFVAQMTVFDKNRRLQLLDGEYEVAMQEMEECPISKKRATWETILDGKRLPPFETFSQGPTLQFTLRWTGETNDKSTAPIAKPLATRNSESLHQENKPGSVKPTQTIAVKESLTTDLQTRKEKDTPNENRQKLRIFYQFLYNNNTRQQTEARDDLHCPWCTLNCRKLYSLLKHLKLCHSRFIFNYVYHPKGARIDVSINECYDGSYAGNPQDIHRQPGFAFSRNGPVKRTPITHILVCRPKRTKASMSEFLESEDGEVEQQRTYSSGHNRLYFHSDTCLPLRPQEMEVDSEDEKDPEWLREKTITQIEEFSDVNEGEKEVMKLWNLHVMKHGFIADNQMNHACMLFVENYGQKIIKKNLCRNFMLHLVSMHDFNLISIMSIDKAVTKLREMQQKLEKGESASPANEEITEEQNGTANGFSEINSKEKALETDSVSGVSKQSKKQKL

CCCc1cc(C)[nH]c(=O)c1CNC(=O)c1cc(-c2ccc(N3CCN(C(C)C)CC3)nc2)cc2c1cnn2C(C)C [EZH2i-1]
number of persister cells [1]: increased the number of persister cells | EZH2 protein levels (H3K27me3, EZH2): without perturbing EZH2 protein levels | H3K27me3 level (H3K27me3, EZH2): erasing H3K27me3
